Laboratory results as given in ChEMBL document CHEMBL5724806, “Unraveling interindividual differences and functional consequences of gut microbial metabolism of immunosuppressants” (2024).

What was measured:
Type in all cases: ADME
[1] = The drug is tested on Bifidobacterium longum strain: DSM20088 for biotransformation under anaerobic condition. The drug concentrations were measured over 6 timepoints collected between 0 and 12 hours of incubation by liquid-chromatography-coupled mass spectrometry (LC–MS); parameters: dose 5 uM, timepoint 0, 1.5, 3, 6, 9, 12 hours; settings: 5 µM
[2] = The drug is tested on the gut metagenome community of A-10 with ENA study accession number: PRJEB31790 for biotransformation under microaerobic condition. The drug concentrations were measured over 7 timepoints collected between 0 and 12 hours of incubation by liquid-chromatography-coupled mass spectrometry (LC–MS); parameters: dose 5 uM, timepoint 0, 0.75, 1.5, 3, 6, 9, 12 hours; settings: 5 µM
[3] = The drug is tested on Bacteroides ovatus strain: ATCC 8483 for biotransformation under anaerobic condition. The drug concentrations were measured over 6 timepoints collected between 0 and 12 hours of incubation by liquid-chromatography-coupled mass spectrometry (LC–MS); parameters: dose 5 uM, timepoint 0, 1.5, 3, 6, 9, 12 hours; settings: 5 µM
[4] = The drug is tested on the gut metagenome community of A-01 with ENA study accession number: PRJEB31790 for biotransformation under microaerobic condition. The drug concentrations were measured over 7 timepoints collected between 0 and 12 hours of incubation by liquid-chromatography-coupled mass spectrometry (LC–MS); parameters: dose 5 uM, timepoint 0, 0.75, 1.5, 3, 6, 9, 12 hours; settings: 5 µM
[5] = The drug is tested on the gut metagenome community of A-09 with ENA study accession number: PRJEB31790 for biotransformation under anaerobic condition. The drug concentrations were measured over 7 timepoints collected between 0 and 12 hours of incubation by liquid-chromatography-coupled mass spectrometry (LC–MS); parameters: dose 5 uM, timepoint 0, 0.75, 1.5, 3, 6, 9, 12 hours; settings: 5 µM
[6] = The drug is tested on Gemella haemolysans strain: DSM107751 for biotransformation under anaerobic condition. The drug concentrations were measured over 6 timepoints collected between 0 and 12 hours of incubation by liquid-chromatography-coupled mass spectrometry (LC–MS); parameters: dose 5 uM, timepoint 0, 1.5, 3, 6, 9, 12 hours; settings: 5 µM
[7] = The drug is tested on the gut metagenome community of P-03 with ENA study accession number: PRJEB31790 for biotransformation under anaerobic condition. The drug concentrations were measured over 7 timepoints collected between 0 and 12 hours of incubation by liquid-chromatography-coupled mass spectrometry (LC–MS); parameters: dose 5 uM, timepoint 0, 0.75, 1.5, 3, 6, 9, 12 hours; settings: 5 µM
[8] = The drug is tested on Escherichia coli strain: DSM27469 for biotransformation under microaerobic condition. The drug concentrations were measured over 6 timepoints collected between 0 and 12 hours of incubation by liquid-chromatography-coupled mass spectrometry (LC–MS); parameters: dose 5 uM, timepoint 0, 1.5, 3, 6, 9, 12 hours; settings: 5 µM
[9] = The drug is tested on Lactobacillus fermentum strain: DSM20052 for biotransformation under microaerobic condition. The drug concentrations were measured over 6 timepoints collected between 0 and 12 hours of incubation by liquid-chromatography-coupled mass spectrometry (LC–MS); parameters: dose 5 uM, timepoint 0, 1.5, 3, 6, 9, 12 hours; settings: limosilactobacillus fermentum, 5 µM
[10] = The drug is tested on the gut metagenome community of T-01 with ENA study accession number: PRJEB31790 for biotransformation under microaerobic condition. The drug concentrations were measured over 7 timepoints collected between 0 and 12 hours of incubation by liquid-chromatography-coupled mass spectrometry (LC–MS); parameters: dose 5 uM, timepoint 0, 0.75, 1.5, 3, 6, 9, 12 hours; settings: 5 µM
[11] = The drug is tested on Bifidobacterium longum strain: DSM20088 for biotransformation under microaerobic condition. The drug concentrations were measured over 6 timepoints collected between 0 and 12 hours of incubation by liquid-chromatography-coupled mass spectrometry (LC–MS); parameters: dose 5 uM, timepoint 0, 1.5, 3, 6, 9, 12 hours; settings: 5 µM
[12] = The drug is tested on the gut metagenome community of T-03 with ENA study accession number: PRJEB31790 for biotransformation under anaerobic condition. The drug concentrations were measured over 7 timepoints collected between 0 and 12 hours of incubation by liquid-chromatography-coupled mass spectrometry (LC–MS); parameters: dose 5 uM, timepoint 0, 0.75, 1.5, 3, 6, 9, 12 hours; settings: 5 µM
[13] = The drug is tested on Escherichia coli strain: DSM27469 for biotransformation under anaerobic condition. The drug concentrations were measured over 6 timepoints collected between 0 and 12 hours of incubation by liquid-chromatography-coupled mass spectrometry (LC–MS); parameters: dose 5 uM, timepoint 0, 1.5, 3, 6, 9, 12 hours; settings: 5 µM
[14] = The drug is tested on the gut metagenome community of T-02 with ENA study accession number: PRJEB31790 for biotransformation under microaerobic condition. The drug concentrations were measured over 7 timepoints collected between 0 and 12 hours of incubation by liquid-chromatography-coupled mass spectrometry (LC–MS); parameters: dose 5 uM, timepoint 0, 0.75, 1.5, 3, 6, 9, 12 hours; settings: 5 µM
[15] = The drug is tested on Prevotella copri strain: DSM18205 for biotransformation under anaerobic condition. The drug concentrations were measured over 6 timepoints collected between 0 and 12 hours of incubation by liquid-chromatography-coupled mass spectrometry (LC–MS); parameters: dose 5 uM, timepoint 0, 1.5, 3, 6, 9, 12 hours; settings: segatella copri, 5 µM
[16] = The drug is tested on Gemella morbillorum strain: DSM20572 for biotransformation under anaerobic condition. The drug concentrations were measured over 6 timepoints collected between 0 and 12 hours of incubation by liquid-chromatography-coupled mass spectrometry (LC–MS); parameters: dose 5 uM, timepoint 0, 1.5, 3, 6, 9, 12 hours; settings: 5 µM
[17] = The drug is tested on Capnocytophaga ochracea strain: DSM7271 for biotransformation under anaerobic condition. The drug concentrations were measured over 6 timepoints collected between 0 and 12 hours of incubation by liquid-chromatography-coupled mass spectrometry (LC–MS); parameters: dose 5 uM, timepoint 0, 1.5, 3, 6, 9, 12 hours; settings: 5 µM
[18] = The drug is tested on the gut metagenome community of A-10 with ENA study accession number: PRJEB31790 for biotransformation under anaerobic condition. The drug concentrations were measured over 7 timepoints collected between 0 and 12 hours of incubation by liquid-chromatography-coupled mass spectrometry (LC–MS); parameters: dose 5 uM, timepoint 0, 0.75, 1.5, 3, 6, 9, 12 hours; settings: 5 µM
[19] = The drug is tested on Odoribacter splanchnicus strain: DSM20712 for biotransformation under anaerobic condition. The drug concentrations were measured over 6 timepoints collected between 0 and 12 hours of incubation by liquid-chromatography-coupled mass spectrometry (LC–MS); parameters: dose 5 uM, timepoint 0, 1.5, 3, 6, 9, 12 hours; settings: 5 µM
[20] = The drug is tested on Streptococcus sanguinis strain: DSM20567 for biotransformation under anaerobic condition. The drug concentrations were measured over 6 timepoints collected between 0 and 12 hours of incubation by liquid-chromatography-coupled mass spectrometry (LC–MS); parameters: dose 5 uM, timepoint 0, 1.5, 3, 6, 9, 12 hours; settings: 5 µM
[21] = The drug is tested on Parabacteroides distasonis strain: DSM20701 for biotransformation under anaerobic condition. The drug concentrations were measured over 6 timepoints collected between 0 and 12 hours of incubation by liquid-chromatography-coupled mass spectrometry (LC–MS); parameters: dose 5 uM, timepoint 0, 1.5, 3, 6, 9, 12 hours; settings: 5 µM
[22] = The drug is tested on Lactobacillus fermentum strain: DSM20052 for biotransformation under anaerobic condition. The drug concentrations were measured over 6 timepoints collected between 0 and 12 hours of incubation by liquid-chromatography-coupled mass spectrometry (LC–MS); parameters: dose 5 uM, timepoint 0, 1.5, 3, 6, 9, 12 hours; settings: limosilactobacillus fermentum, 5 µM
[23] = The drug is tested on the gut metagenome community of A-09 with ENA study accession number: PRJEB31790 for biotransformation under microaerobic condition. The drug concentrations were measured over 7 timepoints collected between 0 and 12 hours of incubation by liquid-chromatography-coupled mass spectrometry (LC–MS); parameters: dose 5 uM, timepoint 0, 0.75, 1.5, 3, 6, 9, 12 hours; settings: 5 µM
[24] = The drug is tested on Parabacteroides merdae strain: DSM19495 for biotransformation under anaerobic condition. The drug concentrations were measured over 6 timepoints collected between 0 and 12 hours of incubation by liquid-chromatography-coupled mass spectrometry (LC–MS); parameters: dose 5 uM, timepoint 0, 1.5, 3, 6, 9, 12 hours; settings: 5 µM
[25] = The drug is tested on Dorea formicigenerans strain: DSM3992 for biotransformation under anaerobic condition. The drug concentrations were measured over 6 timepoints collected between 0 and 12 hours of incubation by liquid-chromatography-coupled mass spectrometry (LC–MS); parameters: dose 5 uM, timepoint 0, 1.5, 3, 6, 9, 12 hours; settings: 5 µM
[26] = The drug is tested on the gut metagenome community of A-05 with ENA study accession number: PRJEB31790 for biotransformation under anaerobic condition. The drug concentrations were measured over 7 timepoints collected between 0 and 12 hours of incubation by liquid-chromatography-coupled mass spectrometry (LC–MS); parameters: dose 5 uM, timepoint 0, 0.75, 1.5, 3, 6, 9, 12 hours; settings: 5 µM

| Structure (SMILES) | Bacterial Biotransformation [1] | Bacterial Biotransformation [2] | Bacterial Biotransformation [3] | Bacterial Biotransformation [4] | Bacterial Biotransformation [5] | Bacterial Biotransformation [6] | Bacterial Biotransformation [7] | Bacterial Biotransformation [8] | Bacterial Biotransformation [9] | Bacterial Biotransformation [10] | Bacterial Biotransformation [11] | Bacterial Biotransformation [12] | Bacterial Biotransformation [13] | Bacterial Biotransformation [14] | Bacterial Biotransformation [15] | Bacterial Biotransformation [16] | Bacterial Biotransformation [17] | Bacterial Biotransformation [18] | Bacterial Biotransformation [19] | Bacterial Biotransformation [20] | other results |
| --- | --- | --- | --- | --- | --- | --- | --- | --- | --- | --- | --- | --- | --- | --- | --- | --- | --- | --- | --- | --- | --- |
| CCOc1nc2cccc(C(=O)O)c2n1Cc1ccc(-c2ccccc2-c2nnn[nH]2)cc1 | Compound NOT metabolized | Compound NOT metabolized | Compound NOT metabolized | Compound NOT metabolized | Compound NOT metabolized | Compound NOT metabolized | Compound NOT metabolized | Compound NOT metabolized | Compound NOT metabolized | Compound NOT metabolized | Compound NOT metabolized | Compound NOT metabolized | Compound NOT metabolized | Compound NOT metabolized | Compound NOT metabolized | Compound NOT metabolized | Compound NOT metabolized | Compound NOT metabolized | Compound NOT metabolized | Compound NOT metabolized | Bacterial Biotransformation [21]: Compound NOT metabolized; Bacterial Biotransformation [22]: Compound metabolized; Bacterial Biotransformation [23]: Compound NOT metabolized; Bacterial Biotransformation [24]: Compound NOT metabolized; Bacterial Biotransformation [25]: Compound NOT metabolized; Bacterial Biotransformation [26]: Compound NOT metabolized |
| CCOC(=O)[C@H](CCc1ccccc1)N[C@@H](C)C(=O)N1[C@H](C(=O)O)C[C@@H]2CCC[C@@H]21 | Compound NOT metabolized | Compound NOT metabolized | Compound NOT metabolized | Compound NOT metabolized | Compound NOT metabolized | Compound NOT metabolized | Compound NOT metabolized | Compound NOT metabolized | Compound NOT metabolized | Compound NOT metabolized | Compound NOT metabolized | Compound NOT metabolized | Compound NOT metabolized | Compound NOT metabolized | Compound NOT metabolized | Compound NOT metabolized | Compound NOT metabolized | Compound NOT metabolized | Compound NOT metabolized | Compound NOT metabolized | Bacterial Biotransformation [21]: Compound NOT metabolized; Bacterial Biotransformation [22]: Compound metabolized; Bacterial Biotransformation [23]: Compound NOT metabolized; Bacterial Biotransformation [24]: Compound NOT metabolized; Bacterial Biotransformation [25]: Compound NOT metabolized; Bacterial Biotransformation [26]: Compound NOT metabolized |
| C[C@@H](NCCCc1cccc(C(F)(F)F)c1)c1cccc2ccccc12 | Compound NOT metabolized | Compound NOT metabolized | Compound NOT metabolized | Compound NOT metabolized | Compound NOT metabolized | Compound NOT metabolized | Compound NOT metabolized | Compound NOT metabolized | Compound NOT metabolized | Compound metabolized | Compound NOT metabolized | Compound NOT metabolized | Compound NOT metabolized | Compound NOT metabolized | Compound NOT metabolized | Compound NOT metabolized | Compound NOT metabolized | Compound NOT metabolized | Compound NOT metabolized | Compound NOT metabolized | Bacterial Biotransformation [21]: Compound NOT metabolized; Bacterial Biotransformation [22]: Compound NOT metabolized; Bacterial Biotransformation [23]: Compound NOT metabolized; Bacterial Biotransformation [24]: Compound NOT metabolized; Bacterial Biotransformation [25]: Compound NOT metabolized; Bacterial Biotransformation [26]: Compound NOT metabolized |
